One experiment concerns U-937/GTB. Nature of the experiment: Cytotoxicity against human U937/GTB cells after 72 hrs by trypan blue exclusion method. In kind it is functional, cell-based.
A further experiment deals with RPMI-8226. Nature of the experiment: Cytotoxicity against human RPMI8226/S cells after 72 hrs by trypan blue exclusion method. In kind it is functional, cell-based.

pIC50: −log10 of the molar value. Where a SMILES comes first, the peptide text is derived from it. Bridges are numbered along the chain shown (N, C = ends).

Regarding `CC(C)C[C@@H]1NC(=O)CNC(=O)[C@H](CC(N)=O)NC(=O)[C@H](CCCNC(=N)N)NC(=O)[C@H]([C@@H](C)O)NC(=O)[C@@H]2CSSC[C@@H]3NC(=O)[C@H]([C@@H](C)O)NC(=O)CNC(=O)CNC(=O)[C@H](C(C)C)NC(=O)[C@@H](NC(=O)[C@@H](NC(=O)[C@H](CCC(=O)O)NC(=O)CN)[C@@H](C)O)CSSC[C@H](NC(=O)[C@H](CO)NC(=O)[C@H](CSSC[C@@H](C(=O)O)NC(=O)[C@H](C(C)C)NC(=O)[C@@H]4CCCN4C1=O)NC(=O)CNC(=O)[C@@H]1CCCN1C(=O)[C@H]([C@@H](C)O)NC(=O)[C@H](CC(N)=O)NC3=O)C(=O)N[C@@H](CO)C(=O)N[C@@H](Cc1c[nH]c3ccccc13)C(=O)N1CCC[C@H]1C(=O)N[C@@H](C(C)C)C(=O)N2`, the pIC50 (in general, −log10 of the IC50, conventionally taken in molar units) was 5.22 in the experiment on U-937/GTB (Homo sapiens, U-937/GTB, 72 h) and 5.52 with RPMI-8226 (Homo sapiens, RPMI8226/S, 72 h).

On to `CC[C@H](C)[C@@H]1NC(=O)[C@@H]2CCCN2C(=O)[C@H](CC(C)C)NC(=O)CNC(=O)[C@H](CC(N)=O)NC(=O)[C@H](CCCNC(=N)N)NC(=O)[C@H]([C@@H](C)O)NC(=O)[C@@H]2CSSC[C@@H]3NC(=O)[C@H]([C@@H](C)O)NC(=O)CNC(=O)CNC(=O)[C@H](C(C)C)NC(=O)[C@@H](NC(=O)[C@@H](NC(=O)[C@H](CCC(=O)O)NC(=O)CN)[C@@H](C)O)CSSC[C@H](NC(=O)[C@H](CO)NC(=O)[C@H](CSSC[C@@H](C(=O)O)NC1=O)NC(=O)CNC(=O)[C@@H]1CCCN1C(=O)[C@H]([C@@H](C)O)NC(=O)[C@H](CC(N)=O)NC3=O)C(=O)N[C@@H](CO)C(=O)N[C@@H](Cc1c[nH]c3ccccc13)C(=O)N1CCC[C@H]1C(=O)N[C@@H](C(C)C)C(=O)N2` (stereo in doubt; form 1), for which the pIC50 in the experiment on U-937/GTB (Homo sapiens, U-937/GTB, 72 h) was 5.40; in the experiment with RPMI-8226 (Homo sapiens, RPMI8226/S, 72 h) it was 5.40.

For `CC[C@H](C)[C@@H]1NC(=O)[C@@H]2CCCN2C(=O)[C@H](CC(C)C)NC(=O)CNC(=O)[C@H](CC(N)=O)NC(=O)[C@H](CCCNC(=N)N)NC(=O)[C@H]([C@@H](C)O)NC(=O)[C@@H]2CSSC[C@@H]3NC(=O)[C@H]([C@@H](C)O)NC(=O)CNC(=O)CNC(=O)[C@H](C(C)C)NC(=O)[C@@H](NC(=O)[C@@H](NC(=O)[C@H](CCC(=O)O)NC(=O)CN)[C@@H](C)O)CSSC[C@H](NC(=O)[C@H](CO)NC(=O)[C@H](CSSC[C@@H](C(=O)O)NC1=O)NC(=O)CNC(=O)[C@@H]1CCCN1C(=O)[C@H]([C@@H](C)O)NC(=O)[C@H](CC(N)=O)NC3=O)C(=O)N[C@@H](CO)C(=O)N[C@@H](Cc1c[nH]c3ccccc13)C(=O)N1CCC[C@H]1C(=O)N[C@@H](C(C)C)C(=O)N2` (stereo in doubt; form 2), the pIC50 in the experiment with U-937/GTB (u-937/gtb) was 5.15; in the experiment with RPMI-8226 (rpmi8226/s), 5.22.

For the compound `CC[C@H](C)[C@@H]1NC(=O)[C@H](C)NC(=O)[C@H](CO)NC(=O)[C@H](CO)NC(=O)[C@H]([C@@H](C)CC)NC(=O)[C@@H]2CSSC[C@@H]3NC(=O)[C@H](C(C)C)NC(=O)[C@H](CCCCN)NC(=O)[C@H](CO)NC(=O)[C@H](CCCCN)NC(=O)[C@H](CSSC[C@H](NC(=O)[C@H](CO)NC(=O)[C@H](CCC(=O)O)NC(=O)CN)C(=O)N[C@@H](C(C)C)C(=O)N[C@@H](Cc4c[nH]c5ccccc45)C(=O)N[C@@H]([C@@H](C)CC)C(=O)N4CCC[C@H]4C(=O)N2)NC(=O)[C@H](CO)NC(=O)[C@H](CSSC[C@@H](C(=O)O)NC(=O)[C@@H]2CCCN2C(=O)[C@H]([C@@H](C)CC)NC(=O)CNC(=O)[C@H](CC(N)=O)NC(=O)[C@H](CCCNC(=N)N)NC(=O)[C@H](Cc2ccc(O)cc2)NC3=O)NC(=O)CNC1=O` [CYCLOVIOLACIN O2] (H-GESCVWIPCISSAIGCSCKSKVCYRNGIPC-OH; disulfide 4-18, 9-23, 16-30), the pIC50 with U-937/GTB (Homo sapiens, U-937/GTB, 72 h) is 6.52; with RPMI-8226 (Homo sapiens, RPMI8226/S, 72 h), 7.00.

With `COc1cccc2c1C(=O)c1c(O)c3c(c(O)c1C2=O)C[C@@](O)(C(=O)CO)C[C@@H]3O[C@H]1C[C@H](N)[C@H](O)[C@H](C)O1` [DOXORUBICIN], the pIC50 in the experiment with U-937/GTB (Homo sapiens, U-937/GTB, 72 h) was 7.00; with RPMI-8226 (Homo sapiens, RPMI8226/S, 72 h), 7.00.

For `CC[C@H](C)[C@@H]1NC(=O)[C@H](C)NC(=O)[C@H](CO)NC(=O)[C@H]([C@@H](C)O)NC(=O)[C@H]([C@@H](C)CC)NC(=O)[C@@H]2CSSC[C@@H]3NC(=O)[C@H](C(C)C)NC(=O)[C@H](CCCCN)NC(=O)[C@H](CO)NC(=O)[C@H](CCCCN)NC(=O)[C@H](CSSC[C@H](NC(=O)[C@H](CO)NC(=O)[C@H](CCC(=O)O)NC(=O)CN)C(=O)N[C@@H](C(C)C)C(=O)N[C@@H](Cc4c[nH]c5ccccc45)C(=O)N[C@@H]([C@@H](C)CC)C(=O)N4CCC[C@H]4C(=O)N2)NC(=O)[C@H](CO)NC(=O)[C@H](CSSC[C@@H](C(=O)O)NC(=O)[C@@H]2CCCN2C(=O)[C@H]([C@@H](C)CC)NC(=O)CNC(=O)[C@H](CC(N)=O)NC(=O)[C@H](CCCNC(=N)N)NC(=O)[C@H](Cc2ccc(O)cc2)NC3=O)NC(=O)CNC1=O` [VITRI A] (H-GESCVWIPCITSAIGCSCKSKVCYRNGIPC-OH; disulfide 4-18, 9-23, 16-30), the pIC50 is 6.22 in the experiment on U-937/GTB (Homo sapiens, U-937/GTB, 72 h) and 6.00 with RPMI-8226 (Homo sapiens, RPMI8226/S, 72 h).

The values above are taken from ChEMBL document CHEMBL1146472, “Cytotoxic cyclotides from Viola tricolor” (J Nat Prod, 2004).
